The record followed here is US6124460A, “Isoquinuclidine derivatives, method of manufacturing the same and therapeutic agents for hypercholesterolemia containing these compounds” (Kotobuki Pharmaceutical Co. Ltd., priority 1998, dated 2000).

Structures are written as SMILES. Where a name gives a salt, the structure may show the parent alone.

What is called IC50 is the concentration that inhibits the measured activity by half. The term inhibition denotes the share of the control response that was lost under treatment. Low values mean little suppression, high ones strong suppression. For orientation: ED50 means the midpoint of the dose-response relation.

Assay [1] concerns the target T1, Squalene Synthase in Rat Liver Microsomes (Rattus norvegicus, UniProt Q02769).
T1 construct: microsomes were prepared from male Sprague-Dawley rat; from tissue; host or cells: rat liver microsomes (male Sprague-Dawley)
T1 sequence (Q02769 1-416): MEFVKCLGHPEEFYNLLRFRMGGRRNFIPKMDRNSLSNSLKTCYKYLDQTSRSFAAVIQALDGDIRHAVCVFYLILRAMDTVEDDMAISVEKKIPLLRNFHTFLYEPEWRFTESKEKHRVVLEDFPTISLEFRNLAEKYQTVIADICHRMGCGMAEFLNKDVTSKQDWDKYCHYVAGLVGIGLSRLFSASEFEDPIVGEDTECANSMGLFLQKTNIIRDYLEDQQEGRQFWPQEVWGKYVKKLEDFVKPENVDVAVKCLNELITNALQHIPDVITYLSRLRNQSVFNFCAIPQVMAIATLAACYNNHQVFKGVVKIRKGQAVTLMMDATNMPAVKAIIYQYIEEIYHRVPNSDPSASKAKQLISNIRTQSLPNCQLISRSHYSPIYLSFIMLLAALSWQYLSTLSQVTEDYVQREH
Kind of assay: Assay of squalene synthase (SQS) in rat liver microsomes. Type of assay: biochemical, male Sprague-Dawley rat. The settings on record: for IC50: 2.5 μM FPP, pH 7.4, 30 min at 37° C., read-out: Inhibition of SQS IC50; for Inhibition of SQS (N.E.; no effect at a dose in the parentheses): at 10^-5 M. Here is the method: 1. Assay of Squalene Synthase in Rat Liver Microsomes Squalene synthase assay was performed in accordance with the method described by [NT] (Biochem. Pharmacol., 51, 1477 (1996)). That is to say, microsomes were prepared from male Sprague-Dawley rat (weight range 250-300 g) by homogenising in 50 mM phosphate buffer, pH 7.4, 5.0 mM MgCl2, 1.0 mM EDTA, and 1.0 mM dithiothreitol using a polytron (Kinetica, Sweden). The homogenates were centrifuged at 10,000 g for 20 min at 4° C., and, after spinning the supernatants were poured into the tube through cotton gauze. Microsomes were then isolated from the supernatant by centrifugation at 178,000 g for 90 min at 4° C. Microsomes were then resuspended in homogenisation buffer and stored in aliquots at -80° C. until use. For in vitro studies, the compounds were dissolved in DMSO. The squalene synthase reaction system in a volume of 100 μl contained 50 mM phosphate buffer, pH 7.4, 5.0 mM MgCl2, 10 mM KF, 0.5 mM NADPH, 50 mM ascorbic acid, 20U /ml ascorbate oxidase, 2.5 μM farnesyl-pyrophosphate (FPP) and microsomes, 40 μg/ml. The compounds (in 1 μl DMSO), microsomes (in 10 μl buffer) and other reagent ([…]) were pre-incubated for 5 min at 37° C. The reactions were started by the addition of 5 μl of an aqueous solution of FPP containing about 0.1 μCi of [H] FPP; incubations were at 37° C. for 30 min. The reactions were then stopped by the addition of 50 μl of 20% KOH in 50% ethanol. […] The IC50 values were calculated.

In the next assay the test system is Sterol Biosynthesis. Nature of the assay: Assay of sterol biosynthesis in rats (inhibition of cholesterol biosynthesis). Format: in vivo. The settings on record: female Sprague-Dawley rats, liver; for inhibition at 30 mg/kg: po, vs vehicle-treated controls; for inhibition at 30 mg/kg / Inhibition of cholesterol biosynthesis (N.E.; no effect at a dose in the parentheses): 30 mg/kg p.o.

Consider `CCOC(=O)c1ccc(C#Cc2ccc(OCCCN3C(=O)C4CCC3CC4)cc2)cc1` [Compound 15, Ethyl 4-[4-[3-(3-oxo-2-azabicyclo[2.2.2]octan-2-yl)propoxy]phenylethynyl]-benzoate], for which the IC50 in assay [1] was 410 nM.
On to `C#Cc1ccc(OCCCCN2C(=O)C3CCC2CC3)cc1` [Compound 14, 2-[4-(4-ethynylphenoxy)butane-1-yl]-2-azabicyclo[2.2.2]-octane-3-one], for which the 50% inhibitory concentration (IC50) in assay [1] came out at 490 nM.
Consider `C#Cc1ccc(OCCCN2CC3CCC2CC3)c(CC=C)c1` [Compound 38, 2-[3-[(2-Allyl-4-ethynyl)phenoxy]propane-1-yl]-2-azabicyclo[2.2.2]octane hydrochloride], for which testing at 30 mg/kg in the assay on Sterol Biosynthesis (Rattus norvegicus) gave an inhibition of 50.4%. Further, the IC50 in assay [1] is 11 nM.
Regarding `CCOC(=O)C#Cc1ccc(OCCCN2CC3CCC2CC3)cc1` [Compound 12, Ethyl 4-[3-(2-azabicyclo[2.2.2]octan-2-yl)propoxy]phenylpropiolate hydrochloride], in assay [1], the IC50 was 64 nM.
`O=C1C2CCC(CC2)N1CCCOc1ccc(C#Cc2ccc(-c3cccc4ncccc34)cc2)cc1` [Compound 23, 2-[3-[4-[4-(quinolin-5-yl)phenylethynyl]phenoxy]propan-1-yl]-2-azabicyclo[2.2.2]octan-3-one hydrochloride]: in the assay with Sterol Biosynthesis (Rattus norvegicus), the inhibition at 30 mg/kg is 46.7%. The IC50 in assay [1] came out at 69 nM.
In the case of `CCOC(=O)c1ccc(C#Cc2ccc(OCCCN3CC4CCC3CC4)cc2)cc1` [Compound 20, Ethyl 4-[4-[3-(2-azabicyclo[2.2.2]octan-2-yl)propoxy]phenylethynyl]-benzoate hydrochloride], the IC50 in assay [1] was 690 nM.
Still for that read-out and setting: the value for `C(#Cc1cccc2ncccc12)c1ccc(OCCCN2CC3CCC2CC3)cc1` [Compound 25, 2-[3-[4-(quinolin-5-yl-ethynyl)phenoxy]propan-1-yl]-2-azabicyclo[2.2.2]-octane dihydrochloride] was 31 nM.
In the case of `C#Cc1ccc(OCCCN2C(=O)C3CCC2CC3)c(CC=C)c1` [Compound 37, 2-[3-[(2-allyl-4-ethynyl)phenoxy]propane-1-yl]-2-azabicyclo[2.2.2]oct-3-one], the “Inhibition of SQS (N.E.; no effect at a dose in the parentheses)” value in assay [1] is “N.E”.
In the assay on Sterol Biosynthesis (Rattus norvegicus), `C#Cc1ccc(OCCCN2CC3CCC2CC3)cc1` [Compound 10, 2-[3-(4-ethynylphenoxy)propane-1-yl]-2-azabicyclo[2.2.2]octane hydrochloride] returned an inhibition at 30 mg/kg of 48.6%. Besides, the IC50 in assay [1] is 19 nM.
With `CCOC(=O)C#Cc1ccc(OCCCN2C(=O)C3CCC2CC3)cc1` [Compound 6, Ethyl 4-[3-(3-oxo-2-azabicyclo[2.2.2]octan-2-yl)propoxy]phenylpropiolate], the half-inhibitory concentration (IC50) in assay [1] turned out to be 3100 nM.
In the assay on Sterol Biosynthesis (Rattus norvegicus), `C#Cc1ccc(OCCN2C(=O)C3CCC2CC3)cc1` [Compound 13, 2-[2-(4-ethynylphenoxy)ethyl]-2-azabicyclo[2.2.2]octane-3-one] came in with an inhibition at 30 mg/kg of 30.3%. In assay [1], the “Inhibition of SQS (N.E.; no effect at a dose in the parentheses)” value is given as “N.E”.
Regarding `C#Cc1ccc(OCCCN2C(=O)C3CCC2CC3)cc1` [Compound 5, 2-[3-(4-ethynylphenoxy)propane-1-yl]-2-azabicyclo[2.2.2]octane-3-one], the 50% effective dose (ED50) in the assay on Sterol Biosynthesis (Rattus norvegicus, oral gavage, [H] mevalonolactone i.p. after 1 hr) came out at 13.4 mg/kg. Besides, the IC50 in assay [1] was 11 nM.
On to `Cl.O=C(O)c1ccc(C#Cc2ccc(OCCCN3CC4CCC3CC4)cc2)cc1` [Compound 19, 4-[4-[3-(2-azabicyclo[2.2.2]octan-2-yl)propoxy]phenylethynyl]-benzoic acid hydrochloride], for which the “Inhibition of cholesterol biosynthesis (N.E.; no effect at a dose in the parentheses)” value in the assay on Sterol Biosynthesis is listed as “N.E”. Further, in assay [1], the IC50 came out at 39 nM.
Regarding `O=C1C2CCC(CC2)N1CCCOc1ccc(C#Cc2ccc(N3C(=O)C4CCC3CC4)cc2)cc1` [Compound 24, 2-[3-[4-[4-(3-oxo-2-azabicyclo[2.2.2]octan-2-yl)phenylethynyl]phenoxy]propan-1-yl]-2-azabicyclo[2.2.2]octan-3-one], in assay [1], the IC50 is 56000 nM.
As to `O=C(O)c1ccc(C#Cc2ccc(OCCCN3C(=O)C4CCC3CC4)cc2)cc1` [Compound 16, 4-[4-[3-(3-oxo-2-azabicyclo[2.2.2]octan-2-yl)propoxy]phenylethynyl]-benzoic acid], the “Inhibition of cholesterol biosynthesis (N.E.; no effect at a dose in the parentheses)” value with Sterol Biosynthesis was “N.E”. The half-inhibitory concentration (IC50) in assay [1] is 23 nM.
On to `O=C(O)c1ccc(C#Cc2ccc(OCCCN3C(=O)C4CCC3CC4)cc2)s1` [Compound 21, 5-[4-[3-(3-oxo-2-azabicyclo[2.2.2]octan-2-yl)propoxy]phenylethynyl]-thiophene-2-carboxylic acid], for which the IC50 in assay [1] is 56 nM.
In turn, `O=C1C2CCC(CC2)N1CCCOc1ccc(C#Cc2cccc3ncccc23)cc1` [Compound 22, 2-[3-[4-(quinolin-5-yl-ethynyl)phenoxy]propan-1-yl]-2-azabicyclo[2.2.2]-octan-3-one hydrochloride] gave an inhibition at 30 mg/kg with Sterol Biosynthesis (Rattus norvegicus) of 25.1%. In addition, the IC50 in assay [1] is 15 nM.
Regarding `O=C(O)C#Cc1ccc(OCCCN2C(=O)C3CCC2CC3)cc1` [Compound 7, 4-[3-(3-oxo-2-azabicyclo[2.2.2]octan-2-yl)propoxy]phenylpropiolic acid], in assay [1], the half-maximal inhibitory concentration (IC50) worked out at 490 nM.
